Values of other authors as cited in patent US12528029B2, “Separating and quantifying unbound target analytes from biological samples” (ARUP Laboratories, Inc., priority 2017, dated 2026).

Key:
albumin = molecular target: T1, albumin (Homo sapiens, UniProt P02768)
T1 construct: host or cells: circulating blood / serum

[1] = molecular target: T2, vitamin D binding protein (VDBP) (Homo sapiens, UniProt P02774); settings: serum
T2 construct: host or cells: circulating blood / serum
T2 sequence (P02774 17-474): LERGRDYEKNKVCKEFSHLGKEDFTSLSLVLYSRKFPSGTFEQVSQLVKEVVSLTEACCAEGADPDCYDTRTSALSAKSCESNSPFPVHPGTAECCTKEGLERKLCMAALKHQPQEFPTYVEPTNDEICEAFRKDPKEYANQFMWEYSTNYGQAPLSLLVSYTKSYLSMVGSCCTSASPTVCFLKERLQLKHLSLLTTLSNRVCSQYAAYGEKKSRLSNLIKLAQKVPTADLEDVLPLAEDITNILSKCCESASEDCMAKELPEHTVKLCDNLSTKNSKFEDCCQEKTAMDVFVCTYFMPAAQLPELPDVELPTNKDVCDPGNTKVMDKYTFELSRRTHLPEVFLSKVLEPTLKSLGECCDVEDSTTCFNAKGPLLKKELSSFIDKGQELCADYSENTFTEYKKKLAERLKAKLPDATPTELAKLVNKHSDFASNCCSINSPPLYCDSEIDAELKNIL

[2] = molecular target: T3, sex hormone-binding globulin (SHBG) (Homo sapiens, UniProt P04278); settings: share of the protein-bound Te; remainder weakly bound to albumin
T3 sequence (P04278 30-402): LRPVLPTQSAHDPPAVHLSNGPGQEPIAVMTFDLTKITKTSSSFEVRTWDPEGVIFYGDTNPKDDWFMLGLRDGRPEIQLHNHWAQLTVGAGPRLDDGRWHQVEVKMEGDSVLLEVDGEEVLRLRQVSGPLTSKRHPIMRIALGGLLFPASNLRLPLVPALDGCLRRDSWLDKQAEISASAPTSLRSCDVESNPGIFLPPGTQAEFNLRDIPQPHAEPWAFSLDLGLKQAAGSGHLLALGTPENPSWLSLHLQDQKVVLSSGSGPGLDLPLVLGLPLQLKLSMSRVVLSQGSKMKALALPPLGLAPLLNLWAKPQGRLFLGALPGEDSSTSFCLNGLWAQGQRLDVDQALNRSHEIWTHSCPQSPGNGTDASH

T1 sequence (P02768 25-609): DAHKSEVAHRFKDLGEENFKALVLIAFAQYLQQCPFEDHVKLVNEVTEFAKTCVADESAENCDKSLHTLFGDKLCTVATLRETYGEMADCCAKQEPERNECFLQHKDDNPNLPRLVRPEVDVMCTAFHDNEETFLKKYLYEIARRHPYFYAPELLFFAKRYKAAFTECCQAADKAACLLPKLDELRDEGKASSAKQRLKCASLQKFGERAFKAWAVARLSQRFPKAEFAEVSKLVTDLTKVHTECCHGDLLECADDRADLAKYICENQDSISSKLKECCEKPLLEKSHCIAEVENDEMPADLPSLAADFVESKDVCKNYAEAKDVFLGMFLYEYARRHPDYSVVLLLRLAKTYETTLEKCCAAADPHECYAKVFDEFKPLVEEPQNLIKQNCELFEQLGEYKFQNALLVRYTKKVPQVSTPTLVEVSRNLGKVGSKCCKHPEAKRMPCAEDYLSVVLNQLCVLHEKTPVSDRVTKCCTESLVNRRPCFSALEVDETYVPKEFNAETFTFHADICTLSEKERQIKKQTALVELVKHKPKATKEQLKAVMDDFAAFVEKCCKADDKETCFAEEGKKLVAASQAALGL

Row | Compound | circulating 25OHD that is free (not protein bound) (circulating) | 25OHD circulating in blood bound to albumin (albumin) | circulating vitamin D in the form of 25OHD, tightly bound to VDBP [1] | protein bound Te strongly bound to SHBG [2] | fraction of Te present in unbound, free form (circulating in blood)
1 | 25-hydroxy vitamin D [25OHD] | Less than 0.1% | 10-15% | 85-90% | – | –
2 | C[C@]12CC[C@H]3[C@@H](CCC4=CC(=O)CC[C@@]43C)[C@@H]1CC[C@@H]2O [Te, Testosterone] | – | – | – | 60-70% | 1-3%
